Measured values: doi:10.1101/2024.08.19.608619, “Discovery of potent SARS-CoV-2 nsp3 macrodomain inhibitors uncovers lack of translation to cellular antiviral response” (bioRxiv, 2024)
Where “and” joins values, the source holds several entries; their conditions need not be identical. Equal entries are not always repeated.

Columns and labels:
[1] = Hepatic microsomal stability, HLM; assay type: in vitro ADME, human; conditions: In vitro human liver microsomal stability; for perc_remaining_no_cofactor: no cofactor
[2] = tested on: HeLa-ACE2 cells; conditions: protocol HeLa-ACE2 cytotoxicity; for perc_max_measured: highest measured response of the dose series; for perc_min_measured: lowest measured response of the dose series

| Compound | perc_remaining [1] | t_half [1] | perc_remaining_no_cofactor [1] | microsomal CLint ([1]; human, liver microsomes) [µL/min/mg] | cc10 [2] [µM] | perc_max_measured [2] | perc_min_measured [2] | clint [1] | CC50 [2] [µM] |
| --- | --- | --- | --- | --- | --- | --- | --- | --- | --- |
| CC(C)C(Nc1ncnc2[nH]ccc12)c1ccc2c(c1)S(=O)(=O)CCC2 (stereo not shown) [ASAP-0008327] | 53.0% | 44.7 min | 99.0% | 37 | > 50.0 | 104.85% | 98.585% | – | – |
| COc1ccc([C@@H](Cc2nnn[nH]2)NC(=O)c2ncnc3[nH]ccc23)cc1 [ASAP-0008340] | 86.0% | 313.8 min | 110.0% | – | – | – | – | 5.0 µL/min/mg | – |
| CC(C)[C@@H](Nc1ncnc2[nH]c(-c3cnn(C)c3C#N)cc12)c1ccc2c(n1)OCCO2 [ASAP-0008418] | 34.0% and 36.0% | 28.1 min and 29.7 min | 98.0% and 104.0% | – | > 50.0 | 131.128% and 106.847% | 59.813% and 94.114% | 59.0 µL/min/mg and 56.0 µL/min/mg | > 50 |
